Values quoted from earlier work in patent US20140357595A1, “METHODS OF PREVENTING AND TREATING RECURRENCE OF A HEPATITIS C VIRUS INFECTION IN A SUBJECT AFTER THE SUBJECT HAS RECEIVED A LIVER TRANSPLANT” (priority 2013, published 2014).

Legend:
[1] = biological target: T1, HCV NS5B RNA dependent RNA polymerase (Hepatitis C virus genotype 1a, UniProt P27958)
T1 construct: the HCV NS5B RNA dependent RNA polymerase

[2] = clinical trials

T1 sequence (P27958 2421-3011): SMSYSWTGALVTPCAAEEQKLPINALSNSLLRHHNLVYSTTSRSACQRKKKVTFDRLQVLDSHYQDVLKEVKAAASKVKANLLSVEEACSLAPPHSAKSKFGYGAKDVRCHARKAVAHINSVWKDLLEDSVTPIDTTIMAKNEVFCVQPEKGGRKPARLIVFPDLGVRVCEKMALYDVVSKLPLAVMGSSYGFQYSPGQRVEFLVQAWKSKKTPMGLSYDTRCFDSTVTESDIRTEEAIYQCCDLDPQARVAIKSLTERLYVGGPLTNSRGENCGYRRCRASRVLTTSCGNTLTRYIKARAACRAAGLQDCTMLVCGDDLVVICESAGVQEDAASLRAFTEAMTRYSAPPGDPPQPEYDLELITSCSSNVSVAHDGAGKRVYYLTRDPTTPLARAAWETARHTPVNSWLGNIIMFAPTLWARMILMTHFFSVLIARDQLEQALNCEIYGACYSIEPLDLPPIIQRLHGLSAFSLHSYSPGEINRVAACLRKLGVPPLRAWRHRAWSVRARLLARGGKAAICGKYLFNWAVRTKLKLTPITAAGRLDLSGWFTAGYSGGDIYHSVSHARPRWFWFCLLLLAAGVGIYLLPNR

Row | Compound | inhibition of HCV replication mediated by the HCV NS5B RNA dependent RNA polymerase [1] | tolerability [2]
1 | C[C@@]1(F)[C@H](O)[C@@H](COP(=O)(O)OP(=O)(O)OP(=O)(O)O)O[C@H]1n1ccc(=O)[nH]c1=O [5′-triphosphate metabolite of Compound 1] | potent and selective inhibitor | 
2 | CC(C)OC(=O)[C@H](C)N[P@](=O)(OC[C@H]1O[C@@H](n2ccc(=O)[nH]c2=O)[C@](C)(F)[C@@H]1O)Oc1ccccc1 [Compound 1, (S)-isopropyl 2-(((S)-(((2R,3R,4R,5R)-5-(2,4-dioxo-3,4-dihydropyrimidin-1(2H)-yl)-4-fluoro-3-hydroxy-4-methyltetrahydrofuran-2-yl)methoxy)(phenoxy)phosphoryl)amino)propanoate] |  | well-tolerated
